In patent US7138361B2, “Herbicidal heterocycles” (E. I. du Pont de Nemours and Company, priority 2000, dated 2006):

Legend:
Assay type in all cases: in vivo
[1] = tested on: Sunflower; test: Test C preemergence; conditions: Rate 125 g/ha; scale 0 to 100, 0 no effect, 100 complete control
From the text: (§1) Seeds of plant species selected from bermudagrass (Cynodon dactylon), Surinam grass (Brachiaria decumbens), cocklebur (Xanthium strumarium), corn (Zea mays), crabgrass (Digitaria sanguinalis), woolly cupgrass (Eriochloa villosa), giant foxtail (Setaria faberii), goosegrass (Eleusine indica), johnsongrass (Sorghum halepense), kochia (Kochia scoparia), lambsquarters (Chenopodium album), morningglory (Ipomoea hederacea), yellow nutsedge (Cyperus esculentus), pigweed (Amaranthus retroflexus), common ragweed (Ambrosia elatior), soybean (Glycine max) and velvetleaf (Abutilon theophrasti) were planted and treated preemergence with test chemicals formulated in a non-phytotoxic solvent mixture which included a surfactant.
(§2) At the same time, plants selected from these crop and weed species and also winter barley (Hordeum vulgare), blackgrass (Alopecurus myosuroides), canary grass (Phalaris minor), chickweed (Stellaria media), downy brome (Bromus tectorum), green foxtail (Setaria viridis), Italian ryegrass (Lolium multiflorum), wheat (Triticum aestivum), wild oat (Avena fatua) and windgrass (Apera spica-venti) were treated with postemergence applications of some of the test chemicals formulated in the same manner. Plants ranged in height from 2 to 18 cm (1- to 4-leaf stage) for postemergence treatments. Plant species in the flooded paddy test consisted of rice (Oryza saliva), smallflower flatsedge (Cyperus difformis), duck salad (Heteranthera limosa) and barnyardgrass (Echinochloa crus-galli) grown to the 2-leaf stage for testing. Treated plants and controls were maintained in a greenhouse for 12 to 14 days, after which time all species were compared to controls and visually evaluated. Plant response ratings, summarized in Table C, are based on a scale of 0 to 100 where 0 is no effect and 100 is complete control. A dash (-) response means no test result.

[2] = tested on: common ragweed (Ambrosia elatior); test: Test C preemergence
From the text: as §1, §2

[3] = tested on: giant foxtail (Setaria faberii); test: Test C preemergence
From the text: as §1, §2

[4] = tested on: goosegrass (Eleusine indica); test: Test C preemergence
From the text: as §1, §2

[5] = tested on: Surinam grass (Brachiaria decumbens); test: Test C preemergence
From the text: as §1, §2

[6] = tested on: pigweed (Amaranthus retroflexus); test: Test C preemergence
From the text: as §1, §2

[7] = tested on: soybean (Glycine max); test: Test C preemergence; conditions: preemergence
From the text: as §1, §2

[8] = tested on: kochia (Kochia scoparia); test: Test C preemergence
From the text: as §1, §2

[9] = tested on: bermudagrass (Cynodon dactylon); test: Test C preemergence
From the text: as §1, §2

[10] = tested on: morningglory (Ipomoea hederacea); test: Test C preemergence
From the text: as §1, §2

[11] = tested on: cocklebur (Xanthium strumarium); test: Test C preemergence
From the text: as §1, §2

[12] = tested on: Nightshade; test: Test C preemergence
From the text: as §1, §2

[13] = tested on: woolly cupgrass (Eriochloa villosa); test: Test C preemergence
From the text: as §1, §2

[14] = tested on: yellow nutsedge (Cyperus esculentus); test: Test C preemergence
From the text: as §1, §2

[15] = tested on: johnsongrass (Sorghum halepense); test: Test C preemergence
From the text: as §1, §2

[16] = tested on: corn (Zea mays); test: Test C preemergence
From the text: as §1, §2

[17] = tested on: lambsquarters (Chenopodium album); test: Test C preemergence
From the text: as §1, §2

[18] = tested on: crabgrass (Digitaria sanguinalis); test: Test C preemergence
From the text: as §1, §2

[19] = tested on: velvetleaf (Abutilon theophrasti); test: Test C preemergence
From the text: as §1, §2

[20] = tested on: rice (Oryza saliva); test: Test C flooded paddy test; conditions: for Rice plant response rating: Flooded Paddy, scale 0 to 100, 0 no effect, 100 complete control; for Plant response rating, Rice: flooded paddy test, scale 0 to 100 (0 no effect, 100 complete control)
Summary of the method: (§3)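 Ratings come from visual comparison with control plants after 12 to 14 days in the greenhouse. Each species was at the 2-leaf stage when the flooded paddy was treated. Scores run from 0, meaning no effect, to 100, meaning complete control.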

[21] = tested on: barnyardgrass (Echinochloa crus-galli); test: Test C flooded paddy test; conditions: for Barnyardgrass plant response rating: Flooded Paddy, scale 0 to 100, 0 no effect, 100 complete control; for Plant response rating, Barnyardgrass: flooded paddy test, scale 0 to 100 (0 no effect, 100 complete control)
Summary of the method: as §3

[22] = Rate 125 g/ha, scale 0 to 100, 0 no effect, 100 complete control
[23] = preemergence, Rate 31 g/ha, scale 0 to 100
[24] = preemergence, Rate 250 g/ha, scale 0 to 100, 0 no effect, 100 complete control
[25] = Rate 62 g/ha, scale 0 to 100, 0 no effect, 100 complete control
[26] = preemergence, Rate 250 g/ha, visual evaluation after 12 to 14 days
[27] = Rate 250 g/ha, scale 0 to 100, 0 no effect, 100 complete control

CCC(CC)c1ccn(C2CCN(c3ccc(C)c(OC)c3)C2=O)n1 (stereo not shown) [Compound 81]
0: Plant response rating, Sunflower [1] | Plant response rating, Surinam grass [5, 23] | Plant response rating, Morningglory [10, 25] | Plant response rating, Morningglory [10, 23] | Plant response rating, Cocklebur [11, 25] | Plant response rating, Cocklebur [11, 22] | Plant response rating, Cocklebur [11, 23] | Plant response rating, Cupgrass, Woolly [13, 23] | Plant response rating, Nutsedge [14, 25] | Plant response rating, Nutsedge [14, 22] | Plant response rating, Nutsedge [14, 23] | Plant response rating, Nutsedge [14, 24] | Plant response rating, Johnsongrass [15, 25] | Plant response rating, Johnsongrass [15, 23] | Plant response rating, Corn [16, 25] | Plant response rating, Corn [16, 22] | Plant response rating, Corn [16, 23] | Plant response rating (0 to 100), Corn [16, 26] | Plant response rating, Velvetleaf [19, 23] | Plant response rating, Rice ([20]; Rate 62 g/ha) | Plant response rating, Rice ([20]; Rate 125 g/ha)
80: Plant response rating, Velvetleaf [19, 24] | Rice plant response rating ([20]; Rate 250 g/ha) | Rice plant response rating ([20]; Rate 500 g/ha) | Plant response rating, Barnyardgrass ([21]; Rate 125 g/ha)
50: Plant response rating, Surinam grass [5, 22]
60: Plant response rating, Crabgrass [18, 23]
30: Plant response rating, Ragweed, Common [2, 23] | Plant response rating, Foxtail, Giant [3, 23] | Plant response rating, Soybean ([7]; Rate 31 g/ha, scale 0 to 100) | Plant response rating, Cupgrass, Woolly [13, 25] | Plant response rating, Cupgrass, Woolly [13, 22] | Plant response rating, Velvetleaf [19, 22]
90: Plant response rating, Foxtail, Giant [3, 25] | Plant response rating, Goosegrass [4, 23] | Barnyardgrass plant response rating ([21]; Rate 250 g/ha) | Barnyardgrass plant response rating ([21]; Rate 500 g/ha)
70: Plant response rating, Nightshade ([12]; Rate 31 g/ha, scale 0 to 100)
20: Plant response rating, Surinam grass [5, 25] | Plant response rating, Morningglory [10, 22] | Plant response rating, Morningglory [10, 24] | Plant response rating (0 to 100), Cocklebur [11, 26] | Plant response rating, Johnsongrass [15, 22] | Plant response rating (0 to 100), Johnsongrass [15, 26] | Plant response rating, Barnyardgrass ([21]; Rate 62 g/ha)
100: Plant response rating, Ragweed, Common [2, 22] | Plant response rating, Ragweed, Common [2, 24] | Plant response rating, Foxtail, Giant [3, 22] | Plant response rating (0 to 100), Foxtail, Giant [3, 26] | Plant response rating, Goosegrass [4, 25] | Plant response rating, Goosegrass [4, 22] | Plant response rating (0 to 100), Goosegrass [4, 26] | Plant response rating (0 to 100), Surinam grass [5, 26] | Plant response rating, Pigweed [6, 22] | Plant response rating, Pigweed [6, 23] | Plant response rating, Pigweed [6, 24] | Plant response rating, Soybean [7, 27] | Plant response rating, Kochia [8, 25] | Plant response rating, Kochia [8, 22] | Plant response rating, Kochia [8, 23] | Plant response rating (0 to 100), Kochia [8, 26] | Plant response rating, Bermudagrass [9, 25] | Plant response rating, Bermudagrass [9, 22] | Plant response rating, Bermudagrass [9, 23] | Plant response rating (0 to 100 where 0 is no effect and 100 is complete control), Bermudagrass [9, 26] | Plant response rating, Nightshade [12, 25] | Plant response rating, Nightshade [12, 22] | Plant response rating, Nightshade [12, 27] | Plant response rating (0 to 100), Cupgrass, Woolly [13, 26] | Plant response rating, Lambsquarters [17, 25] | Plant response rating, Lambsquarters [17, 22] | Plant response rating, Lambsquarters [17, 23] | Plant response rating, Lambsquarters [17, 24] | Plant response rating, Crabgrass [18, 25] | Plant response rating, Crabgrass [18, 22] | Plant response rating (0 to 100), Crabgrass [18, 26]
